Laboratory results reported in patent US20230126893A1, “[(1,4,5-TRISUBSTITUTED-1H-PYRAZOL-3-YL)SULFANYL]ACETIC ACID DERIVATIVES, SALTS THEREOF, AND USE THEREOF AS ACTIVE HERBICIDAL INGREDIENTS” (BAYER AKTIENGESELLSCHAFT, priority 2020, published 2023).

Tests used:
Format in all cases: in vivo
Alopecurus myosuroides [1] = experiment: Post-emergence herbicidal effect against ALOMY; details: 1280 g/ha, visual score after about 3 weeks, 100% = plants have died, 0% = like control plants
Description: (§1) [table] 2. Post-emergence herbicidal effect and crop plant compatibility Seeds of monocotyledonous and dicotyledonous weed and crop plants are laid out in sandy loam soil in wood-fibre pots, covered with soil and cultivated in a greenhouse under good growth conditions. 2 to 3 weeks after sowing, the test plants are treated at the one-leaf stage. The compounds of the invention, formulated in the form of wettable powders (WP) or as emulsion concentrates (EC), are then sprayed onto the green parts of the plants as aqueous suspension or emulsion at a water application rate equating to 600 to 800 l/ha with addition of 0.2% wetting agent. After the test plants have been left to stand in the greenhouse under optimal growth conditions for about 3 weeks, the action of the preparations is assessed visually in comparison to untreated controls (herbicidal action in percent (%): 100% activity=the plants have died, 0% activity=like control plants).

Alopecurus myosuroides [2] = experiment: Pre-emergence herbicidal effect against ALOMY; details: 1280 g/ha, visual score after 3 weeks, 100% = plants have died, 0% = like control plants
Description: (§2) 1. Pre-emergence herbicidal effect and crop plant compatibility Seeds of monocotyledonous and dicotyledonous weed plants and crop plants are laid out in sandy loam soil in wood-fibre pots and covered with soil. The compounds of the invention, formulated in the form of wettable powders (WP) or as emulsion concentrates (EC), are then applied to the surface of the covering soil as aqueous suspension or emulsion at a water application rate equating to 600 to 800 L/ha with addition of 0.2% wetting agent. After the treatment, the pots are placed in a greenhouse and kept under good growth conditions for the trial plants. The damage to the test plants is scored visually after a test period of 3 weeks by comparison with untreated controls (herbicidal activity in percent (%): 100% activity=the plants have died, 0% activity=like control plants). [table]

Veronica persica [3] = experiment: Pre-emergence herbicidal effect against VERPE; details: 1280 g/ha, visual score after 3 weeks, 100% = plants have died, 0% = like control plants
Description: as §2

Poa annua [4] = experiment: Post-emergence herbicidal effect against POAAN; details: 1280 g/ha, visual assessment about 3 weeks after treatment, 100% = plants have died, 0% = like control plants
Description: as §1

Echinochloa crus-galli [5] = experiment: Post-emergence herbicidal effect against ECHCG; details: 1280 g/ha, visual score after about 3 weeks, 100% = plants have died, 0% = like control plants
Description: as §1

Stellaria media [6] = experiment: Post-emergence herbicidal effect against STEME; details: 1280 g/ha, visual assessment about 3 weeks after treatment, 100% = plants have died, 0% = like control plants
Description: as §1

Stellaria media [7] = experiment: Pre-emergence herbicidal effect against STEME; details: 1280 g/ha, visual score after 3 weeks, 100% = plants have died, 0% = like control plants
Description: as §2

Bassia scoparia = experiment: Post-emergence herbicidal effect against KCHSC; details: 1280 g/ha, visual assessment about 3 weeks after treatment, 100% = plants have died, 0% = like control plants
Description: as §1

[8] = system: Tripleurospermum inodorum; experiment: Pre-emergence herbicidal effect against MATIN; details: 1280 g/ha, visual score after 3 weeks, 100% = plants have died, 0% = like control plants
Description: as §2

Lolium rigidum = experiment: Pre-emergence herbicidal effect against LOLRI; details: 1280 g/ha, visual score after 3 weeks, 100% = plants have died, 0% = like control plants
Description: as §2

Digitaria sanguinalis [9] = experiment: Post-emergence herbicidal effect against DIGSA; details: 1280 g/ha, visual score after about 3 weeks, 100% = plants have died, 0% = like control plants
Description: as §1

Setaria viridis [10] = experiment: Pre-emergence herbicidal effect against SETVI; details: 1280 g/ha, visual score after 3 weeks, 100% = plants have died, 0% = like control plants
Description: as §2

Amaranthus retroflexus [11] = experiment: Pre-emergence herbicidal effect against AMARE; details: 1280 g/ha, visual score after 3 weeks, 100% = plants have died, 0% = like control plants
Description: as §2

[12] = system: Tripleurospermum inodorum; experiment: Post-emergence herbicidal effect against MATIN; details: 1280 g/ha, visual assessment about 3 weeks after treatment, 100% = plants have died, 0% = like control plants
Description: as §1

Abutylon threophrasti = experiment: Post-emergence herbicidal effect against ABUTH; details: 1280 g/ha, visual assessment about 3 weeks after treatment, 100% = plants have died, 0% = like control plants
Description: as §1

Amaranthus retroflexus [13] = experiment: Post-emergence herbicidal effect against AMARE; details: 1280 g/ha, visual assessment about 3 weeks after treatment, 100% = plants have died, 0% = like control plants
Description: as §1

Poa annua [14] = experiment: Pre-emergence herbicidal effect against POAAN; details: 1280 g/ha, visual score after 3 weeks, 100% = plants have died, 0% = like control plants
Description: as §2

Digitaria sanguinalis [15] = experiment: Pre-emergence herbicidal effect against DIGSA; details: 1280 g/ha, visual score after 3 weeks, 100% = plants have died, 0% = like control plants
Description: as §2

Echinochloa crus-galli [16] = experiment: Pre-emergence herbicidal effect against ECHCG; details: 1280 g/ha, visual score after 3 weeks, 100% = plants have died, 0% = like control plants
Description: as §2

Veronica persica [17] = experiment: Post-emergence herbicidal effect against VERPE; details: 1280 g/ha, visual assessment about 3 weeks after treatment, 100% = plants have died, 0% = like control plants
Description: as §1

Setaria viridis [18] = experiment: Post-emergence herbicidal effect against SETVI; details: 1280 g/ha, visual assessment about 3 weeks after treatment, 100% = plants have died, 0% = like control plants
Description: as §1

SMILES | Post-emergence action against ALOMY (Alopecurus myosuroides [1]) [%] | Pre-emergence action against ALOMY (Alopecurus myosuroides [2]) [%] | Pre-emergence action against VERPE (Veronica persica [3]) [%] | Post-emergence action against POAAN (Poa annua [4]) [%] | Post-emergence action against STEME (Stellaria media [6]) [%] | Pre-emergence action against STEME (Stellaria media [7]) [%] | Post-emergence action against KCHSC (Bassia scoparia) [%] | Pre-emergence action against MATIN [8] [%] | Pre-emergence action against LOLRI (Lolium rigidum) [%] | Post-emergence action against DIGSA (Digitaria sanguinalis [9]) [%] | Pre-emergence action against SETVI (Setaria viridis [10]) [%] | Pre-emergence action against AMARE (Amaranthus retroflexus [11]) [%] | Post-emergence action against MATIN [12] [%] | Post-emergence action against ABUTH (Abutylon threophrasti) [%] | Post-emergence action against AMARE (Amaranthus retroflexus [13]) [%] | Pre-emergence action against POAAN (Poa annua [14]) [%] | Pre-emergence action against DIGSA (Digitaria sanguinalis [15]) [%] | Pre-emergence action against ECHCG (Echinochloa crus-galli [16]) [%] | Post-emergence action against VERPE (Veronica persica [17]) [%] | also measured
CCOC(=O)C[S+]([O-])c1nn(-c2cccc(F)c2F)c(-c2ccccc2)c1Br (centres unmarked) [Example I-010] | 100 | 100 | 100 | 100 | 90 | 100 | 90 | 100 | 100 | 90 | 100 | 100 | 100 | 90 | 90 | 100 | 100 | 100 | 90 | Post-emergence action against ECHCG (Echinochloa crus-galli [5]): 100%
CCOC(=O)CSc1nn(-c2ccccc2F)c(-c2cnccn2)c1Br [VI-001] | 90 | – | – | 100 | – | 90 | – | 90 | – | – | – | – | 100 | 90 | 90 | 100 | 90 | – | 90 | –
CCOC(=O)CSc1nn(-c2ccccc2F)c(-c2ccc(F)c(F)c2)c1Br [Example I-002, Ethyl {[4-bromo-5-(3,4-difluorophenyl)-1-(2-fluorophenyl)-1H-pyrazol-3-yl]sulfanyl}acetate] | 100 | 90 | 100 | – | 100 | 100 | – | 100 | 100 | 100 | 100 | 100 | 100 | 90 | 90 | 100 | 90 | – | 90 | Post-emergence action against SETVI (Setaria viridis [18]): 100%
CCOC(=O)CSc1nn(-c2ccccc2F)c(-c2sncc2C)c1Br [Example V-001] | – | – | – | – | – | – | – | 90 | – | – | – | 100 | – | – | 100 | 90 | 90 | – | 90 | –
CC(Sc1nn(-c2ccccc2F)c(-c2ccc(F)c(F)c2)c1Br)C(=O)O (centres unmarked) [Example I-022] | 100 | 90 | 100 | 100 | 90 | 100 | 90 | 90 | 100 | 90 | 100 | 90 | 100 | 90 | – | 90 | 100 | 90 | 100 | Post-emergence action against ECHCG (Echinochloa crus-galli [5]): 100%
O=C(O)CSc1nn(-c2ccccc2F)c(-c2ccc(F)c(F)c2)c1Br [Example I-005, {[4-Bromo-5-(3,4-difluorophenyl)-1-(2-fluorophenyl)-1H-pyrazol-3-yl]sulfanyl}acetic acid] | 100 | 90 | 100 | – | 100 | 100 | – | 100 | 100 | 100 | 100 | 100 | 100 | – | 90 | 100 | 100 | – | 90 | –
O=C(O)CSc1nn(-c2ccccc2F)c(-c2cc(F)cc(Cl)c2)c1Br [Example I-009] | – | 90 | 90 | 100 | 100 | 100 | 100 | 100 | 100 | – | 100 | 100 | 100 | 90 | 100 | 100 | 100 | 90 | 90 | –
O=C(O)CSc1nn(-c2cccc(F)c2F)c(-c2ccccc2)c1Br [Example I-006] | 100 | 90 | 100 | 100 | 100 | 90 | 90 | 100 | 90 | 100 | 100 | 100 | 100 | – | 100 | 100 | 100 | 90 | 90 | –
CCOC(=O)CSc1nn(-c2ccccc2F)c(-c2cc(Cl)cs2)c1Br [IV-001] | – | – | 90 | – | – | 100 | – | 90 | 90 | – | – | 100 | – | – | 90 | 90 | – | – | 90 | –
CCOC(=O)CSc1nn(-c2cccc(F)c2F)c(-c2ccccc2)c1Br [Example I-004] | 100 | 90 | 100 | 100 | 90 | 100 | – | 100 | 100 | – | 100 | 100 | 100 | – | 90 | 100 | 100 | 90 | 90 | –
